# Laboratory results taken from PubChem BioAssay AID328 (DTP/NCI, 2004).
# Several values for one entry are separate records, joined by “and”; a condition that tells them apart may be missing. Equal entries are not always repeated. Inconclusive results and toxic doses are left out. Residues, ends and D or L forms follow the SMILES beside them.
# System: BDF1 mice, P388 leukemia ip, median survival T/C
# Experiment: NCI In Vivo Anticancer Drug Screen. Data for tumor model P388 Leukemia (intraperitoneal) in B6D2F1 (BDF1) mice
# Settings: endpoint: median survival time, higher = longer survival
# Protocol: The antitumor activity of compounds was measured in mice bearing transplantable tumors. Survival or tumor size were measured and the results are expressed as the measurement made in the treated group (T) divided by the measurement made in the vehicle treated control group (C). The tumor model used in this assay is P388 Leukemia (intraperitoneal) in B6D2F1 (BDF1) mice
# [1] = dose: 6.25 mg/kg/injection, schedule: Q01DX009 (ip), vehicle: saline
# [2] = dose: 25.0 mg/kg/injection, schedule: Q04DX003 (ip), vehicle: saline
# [3] = dose: 50.0 mg/kg/injection, schedule: Q01DX009 (ip), vehicle: saline with Tween-80
# [4] = dose: 100.0 mg/kg/injection, schedule: Q01DX009 (ip), vehicle: saline with Tween-80
# [5] = dose: 200.0 mg/kg/injection, schedule: Q01DX009 (ip), vehicle: saline with Tween-80
# [6] = dose: 100.0 mg/kg/injection, schedule: Q04DX003 (ip), vehicle: saline with Tween-80
# [7] = dose: 200.0 mg/kg/injection, schedule: Q04DX003 (ip), vehicle: saline with Tween-80
# [8] = dose: 400.0 mg/kg/injection, schedule: Q04DX003 (ip), vehicle: saline with Tween-80
smiles,measurement,setting,value
Nc1ccc2nc3ccc(N)cc3[n+](-c3ccccc3)c2c1,T/C,"dose: 0.12 mg/kg/injection, schedule: Q01DX009 (ip), vehicle: saline",100 % of control
same,T/C,"dose: 0.25 mg/kg/injection, schedule: Q01DX009 (ip), vehicle: saline",110 % of control
same,T/C,"dose: 0.5 mg/kg/injection, schedule: Q01DX009 (ip), vehicle: saline",110 % of control
same,T/C,"dose: 1.0 mg/kg/injection, schedule: Q03HX024 (ip), vehicle: saline",150 % of control
same,T/C,"dose: 1.13 mg/kg/injection, schedule: Q01DX009 (ip), vehicle: saline",116 % of control
same,T/C,"dose: 1.56 mg/kg/injection, schedule: Q01DX009 (ip), vehicle: saline",113 % of control
same,T/C,"dose: 2.0 mg/kg/injection, schedule: Q01DX009 (sc), vehicle: saline",108 % of control
same,T/C,"dose: 2.0 mg/kg/injection, schedule: Q03HX024 (ip), vehicle: saline",155 % of control
same,T/C,"dose: 4.0 mg/kg/injection, schedule: Q01DX009 (ip), vehicle: saline",153 % of control
same,T/C,"dose: 4.0 mg/kg/injection, schedule: Q01DX009 (sc), vehicle: saline",103 % of control
same,T/C,"dose: 4.0 mg/kg/injection, schedule: Q03HX016 (ip), vehicle: saline",153 % of control
same,T/C,"dose: 4.0 mg/kg/injection, schedule: Q03HX024 (ip), vehicle: saline",156 % of control
same,T/C,"dose: 4.0 mg/kg/injection, schedule: Q04DX003 (sc), vehicle: saline",101 % of control
same,T/C,"dose: 6.0 mg/kg/injection, schedule: Q01DX009 (ip), vehicle: saline",166 % of control
same,T/C,[1],154 % of control
same,T/C,"dose: 8.0 mg/kg/injection, schedule: Q01DX009 (ip), vehicle: saline",155 % of control and 173 % of control
same,T/C,"dose: 8.0 mg/kg/injection, schedule: Q01DX009 (oral), vehicle: saline",95 % of control
same,T/C,"dose: 8.0 mg/kg/injection, schedule: Q01DX009 (sc), vehicle: saline",106 % of control
same,T/C,"dose: 8.0 mg/kg/injection, schedule: Q04DX003 (sc), vehicle: saline",103 % of control
same,T/C,"dose: 8.0 mg/kg/injection, schedule: Q08DX002 (ip), vehicle: saline",123 % of control
same,T/C,"dose: 9.0 mg/kg/injection, schedule: Q01DX009 (ip), vehicle: saline",150 % of control
same,T/C,"dose: 9.3 mg/kg/injection, schedule: Q01DX009 (ip), vehicle: saline",154 % of control
same,T/C,"dose: 16.0 mg/kg/injection, schedule: Q01DX009 (ip), vehicle: saline",182 % of control
same,T/C,"dose: 16.0 mg/kg/injection, schedule: Q01DX009 (oral), vehicle: saline",105 % of control
same,T/C,"dose: 16.0 mg/kg/injection, schedule: Q01DX009 (sc), vehicle: saline",96 % of control
same,T/C,"dose: 16.0 mg/kg/injection, schedule: Q04DX003 (oral), vehicle: saline",99 % of control
same,T/C,"dose: 16.0 mg/kg/injection, schedule: Q04DX003 (sc), vehicle: saline",106 % of control
same,T/C,"dose: 16.0 mg/kg/injection, schedule: Q08DX002 (ip), vehicle: saline",122 % of control
same,T/C,"dose: 18.0 mg/kg/injection, schedule: Q01DX009 (ip), vehicle: saline",154 % of control and 168 % of control and 195 % of control
same,T/C,[2],175 % of control
same,T/C,"dose: 32.0 mg/kg/injection, schedule: Q01DX009 (oral), vehicle: saline",99 % of control
same,T/C,"dose: 32.0 mg/kg/injection, schedule: Q01DX009 (sc), vehicle: saline",105 % of control
same,T/C,"dose: 32.0 mg/kg/injection, schedule: Q04DX003 (ip), vehicle: saline",156 % of control
same,T/C,"dose: 32.0 mg/kg/injection, schedule: Q04DX003 (oral), vehicle: saline",105 % of control
same,T/C,"dose: 32.0 mg/kg/injection, schedule: Q04DX003 (sc), vehicle: saline",97 % of control
same,T/C,"dose: 33.0 mg/kg/injection, schedule: Q04DX003 (ip), vehicle: saline",150 % of control and 170 % of control
same,T/C,"dose: 50.0 mg/kg/injection, schedule: Q04DX003 (ip), vehicle: saline",175 % of control and 180 % of control
same,T/C,"dose: 64.0 mg/kg/injection, schedule: Q01DX009 (oral), vehicle: saline",102 % of control
same,T/C,"dose: 64.0 mg/kg/injection, schedule: Q04DX003 (oral), vehicle: saline",101 % of control
same,T/C,"dose: 64.0 mg/kg/injection, schedule: Q04DX003 (sc), vehicle: saline",101 % of control
same,T/C,"dose: 75.0 mg/kg/injection, schedule: Q04DX003 (ip), vehicle: saline",165 % of control
same,T/C,"dose: 128.0 mg/kg/injection, schedule: Q01DX009 (oral), vehicle: saline",107 % of control
same,T/C,"dose: 128.0 mg/kg/injection, schedule: Q04DX003 (oral), vehicle: saline",101 % of control
same,T/C,"dose: 256.0 mg/kg/injection, schedule: Q04DX003 (oral), vehicle: saline",100 % of control
COC(C)c1cnccc1C(C)c1cc2ccccc2[nH]1 (configuration not stated),T/C,"dose: 100.0 mg/kg/injection, schedule: Q01DX001 (ip), vehicle: saline with Tween-80",105 % of control
same,T/C,"dose: 200.0 mg/kg/injection, schedule: Q01DX001 (ip), vehicle: saline with Tween-80",108 % of control
COc1ccc(OC)c2c1C(SC)C(=O)N2C (configuration not stated),T/C,"dose: 50.0 mg/kg/injection, schedule: Q04DX002 (ip), vehicle: saline with Tween-80",100 % of control
same,T/C,"dose: 100.0 mg/kg/injection, schedule: Q04DX002 (ip), vehicle: saline with Tween-80",100 % of control
same,T/C,"dose: 200.0 mg/kg/injection, schedule: Q04DX002 (ip), vehicle: saline with Tween-80",107 % of control
CC(C)C(NC(=O)C(NC(=O)C(CCCN=C(N)N)NC(=O)C(N)CCCCN)C(C)C)C(N)=O (configuration not stated) (H-KRVV-NH2; configuration not given here),T/C,"dose: 12.5 mg/kg/injection, schedule: Q04DX003 (ip), vehicle: water",101 % of control
same,T/C,"dose: 25.0 mg/kg/injection, schedule: Q04DX003 (ip), vehicle: water",97 % of control
same,T/C,"dose: 50.0 mg/kg/injection, schedule: Q04DX003 (ip), vehicle: water",107 % of control
same,T/C,"dose: 100.0 mg/kg/injection, schedule: Q04DX003 (ip), vehicle: water",92 % of control
same,T/C,"dose: 200.0 mg/kg/injection, schedule: Q04DX003 (ip), vehicle: water",93 % of control
ON=C(c1ccccn1)c1ccccn1,T/C,"dose: 100.0 mg/kg/injection, schedule: Q04DX003 (ip), vehicle: gum acacia",100 % of control
same,T/C,"dose: 200.0 mg/kg/injection, schedule: Q04DX003 (ip), vehicle: gum acacia",104 % of control
same,T/C,"dose: 400.0 mg/kg/injection, schedule: Q04DX003 (ip), vehicle: gum acacia",104 % of control
CC1(C)N=C(N)N=C(N)N1c1cccc(CC(=O)Nc2ccc(S(=O)(=O)F)cc2)c1,T/C,"dose: 25.0 mg/kg/injection, schedule: Q01DX009 (ip), vehicle: saline with Tween-80",120 % of control
same,T/C,[3],155 % of control
same,T/C,[4],175 % of control
same,T/C,[5],170 % of control
C/C=C(\CC)C(=O)NC(N)=O,T/C,"dose: 100.0 mg/kg/injection, schedule: Q01DX009 (ip), vehicle: Klucel (hydroxypropylcellulose) (HPC)",95 % of control
same,T/C,"dose: 200.0 mg/kg/injection, schedule: Q01DX009 (ip), vehicle: Klucel (hydroxypropylcellulose) (HPC)",100 % of control
same,T/C,"dose: 400.0 mg/kg/injection, schedule: Q01DX009 (ip), vehicle: Klucel (hydroxypropylcellulose) (HPC)",122 % of control
Clc1ccccc1-c1nc(-c2ccncc2)no1,T/C,[3],89 % of control
same,T/C,[4],93 % of control
same,T/C,[5],100 % of control
CCC(=O)NC(N)=S,T/C,"dose: 12.5 mg/kg/injection, schedule: Q04DX003 (ip), vehicle: Klucel (hydroxypropylcellulose) (HPC)",100 % of control
same,T/C,"dose: 25.0 mg/kg/injection, schedule: Q04DX003 (ip), vehicle: Klucel (hydroxypropylcellulose) (HPC)",100 % of control
same,T/C,"dose: 50.0 mg/kg/injection, schedule: Q04DX003 (ip), vehicle: Klucel (hydroxypropylcellulose) (HPC)",100 % of control
Cn1c(=N)ccn(C2OC(CO)C(O)C2O)c1=O (configuration not stated) (tested in a mixture with another compound),T/C,"dose: 200.0 mg/kg/injection, schedule: Q04DX003 (ip), vehicle: saline",111 % of control
same,T/C,"dose: 400.0 mg/kg/injection, schedule: Q04DX003 (ip), vehicle: saline",165 % of control
O=C(O)C1C=CC(C(=O)O)CC1 (configuration not stated),T/C,[6],95 % of control
same,T/C,[7],93 % of control
same,T/C,[8],93 % of control
CC(C)CC(Br)C(=O)NC(CC(C)C)C(=O)O (configuration not stated),T/C,[6],104 % of control
same,T/C,[7],100 % of control
same,T/C,[8],109 % of control
CCCCCCCCCCCCCCCC(=O)N(c1ccc(N)cc1)C(C)CCCN(CC)CC (configuration not stated),T/C,[4],89 % of control
same,T/C,[6],90 % of control
same,T/C,[5],98 % of control
same,T/C,[7],90 % of control
same,T/C,"dose: 400.0 mg/kg/injection, schedule: Q01DX009 (ip), vehicle: saline with Tween-80",100 % of control
same,T/C,[8],90 % of control
O.[NH-]C(Cc1ccc(O)cc1)C(=O)O.[Ni] (configuration not stated),T/C,[1],98 % of control
same,T/C,"dose: 12.5 mg/kg/injection, schedule: Q01DX009 (ip), vehicle: saline",107 % of control
same,T/C,[2],100 % of control
